Values of other authors as cited in patent US20120035270A1, “PAEDIATRIC SOLUTIONS COMPRISING A BETA-BLOCKER” (priority 2009, published 2012).

What was measured:
[1] = system: B. Subtilis, S. Aureus and E. Coli; settings: Takahashi et al. 1983
E. Coli = settings: growth of E. Coli
S. Aureus = settings: growth of S. Aureus
B. Subtilis = settings: growth of B. Subtilis
[2] = system: Infantile capillary hemangiomas (IH); settings: severe hemangiomas of infancy, Léauté-Labrèze et al. 2008

For CC(C)(C)NC[C@H](O)COc1nsnc1N1CCOCC1 [Timolol], the antimicrobial effects [1] is given as “do not have these antimicrobial effects”.
In the case of CC(=O)c1cc2cccc(OCC(O)CNC(C)C)c2o1 (stereo not drawn) [befunolol], the antimicrobial effects [1] is listed as “do not have these antimicrobial effects”.
For Cc1ccc(Cl)c(OCC(O)CNC(C)(C)C)c1 (stereo not drawn) [bupranolol], the minimum inhibitory concentration (E. Coli) is given as 0.05%, the minimum inhibitory concentration (S. Aureus) is given as 0.05% and the minimum inhibitory concentration (B. Subtilis) is given as 0.1%.
For CC(C)NCC(O)COc1cccc2ccccc12 (stereo not drawn) [propranolol, 1-(isopropylamino)-3-(naphthalen-1-yloxy)propan-2-ol], the “control and treatment of the growth of IH” value [2] is given as “could efficiently be used to control and even to treat the growth of IH”.
